In patent publication US10183015B2, “Heterocyclic compounds and methods of use” (Medivation Technologies LLC, priority 2015, dated 2019):
Several values for one entry are separate records, joined by “and”; a condition that tells them apart may be missing. Identical values can stand only once.

Legend:
Type in all cases: in vivo
PERK = assay: Short-term Paigen-diet NASH mouse model: hepatic PERK gene expression (RT-qPCR); details: 21 days
Method: (§1) To investigate whether Compound #37 prevents the development of pathology associated with NASH and steatosis in an acute exploratory disease model, a study was conducted using a diet-induced acute liver steatosis model in mice. As described below, in this study, C57BL/6J mice were initiated on the Paigen diet and simultaneously treated with Compound #37 (5, 20, and 40 mg/kg/day) or vehicle control (20% HPβCD 10 mL/kg/day) by oral gavage for 21 days.
(§2) After acclimation, 8-week old male C57Bl/6J mice (Charles River) weighing about 25 g were randomized in 4 groups according their body weight and treated once daily around noon by oral gavage with vehicle, or Compound #37 at various for 21 days as follows: Group 1: vehicle-20% (2-hydroxypropyl)-β-cyclodextrin (HP-β-CD) (n=10); Group 2: Compound #37, 5 mg/kg (n=10) Group 3: Compound #37, 20 mg/kg (n=10) Group 4: Compound #37, 40 mg/kg (n=10). During the treatment period, body weight and food intake (measured over 24h) were measured 3 times per week and once a week, respectively. During the acclimation, all mice were fed a standard diet (Special Diets Services RM1 (E), product no. 801492) and tap water ad libitum. After the acclimation period, mice were fed until the end of the experiment with a 60% high fat Paigen diet (60 kcal % fat, 1.25% cholesterol, and 0.5% cholate; D11061901, Research Diet) and tap water ad libitum.
(§3) Gene expression analysis. Hepatic expression levels of genes involved in lipid metabolism (FAS, SREBP1, ACC1, SCD1), cholesterol metabolism (HMG-CoAR, LDLR), SREBP proteolysis (SCAP, INSIG1), ER stress (PERK), oxidative stress (NRF2), inflammation (MCP-1), and fibrosis (collagen 1α1) were quantified by RTqPCR. Expression level was normalized to 18S gene expression and relative expression to vehicle group was calculated with the […] method.

[1] = test system: diet-induced NASH obese insulin resistant mice; assay: DIN mouse model: liver weight and liver lipid levels; set-up: liver weight: unit not given here; details: 20 mg/kg
Method: (§4) Male C57Bl/6J mice (8 weeks old) were housed in enriched ventilated cages (31×12.5×12.7 cm) throughout the experimental phase. Animals' cages litters were changed at least once a week. Animal were housed 5 per cage on inverted 12-hour light cycle (at 09:00 am lights off), 22±2° C. and 55±10% relative humidity. The acclimation period was 20 days. During the acclimation period, all mice were fed a standard diet (RM1 (E) 801492, SDS) and tap water ad libitum. After the acclimation period, mice were fed with the DIN diet (60% fat, cholesterol enriched) and fructose-enriched tap water ad libitum until the end of the experiment.
(§5) At 6 weeks of diet, mice were 4-hour fasted (09:00 am to 1:00 pm) and blood (150 μl/EDTA) was collected at 01:00 pm by retro-orbital bleeding under isoflurane anesthesia. Mice were then allocated in 2 homogenous groups (n=12/group) according to their plasma levels of ALT (average levels: 685U/L), AST (average levels: 627U/L) and HOMA-IR index (average value: 4.7), into 2 homogenous groups (see values at day 0 in Tables 15A and 15B ALT/AST and Tables 16A and 16B for HOMA-IR). Mice were then treated once daily by oral gavage with vehicle (Group 1) or Compound #37 at 20 mg/kg (Group 2) for 70 days.
To investigate whether Compound #37 improves pre-existing steatosis/NASH pathology, a study was conducted using a 16-week diet-induced NASH mouse model. In this model, mice develop steatosis that progresses with inflammation and fibrosis that mimic many of the observed pathologies in human nonalcoholic fatty liver disease (NAFLD) and NASH (Hebbard & George, 2010). For 6 weeks, mice were fed a high-fat, high-cholesterol diet and provided drinking water containing fructose to induce liver pathology (Charlton et al, 2011). After 6 weeks, the mice were divided into 2 groups with similar mean aspartate aminotransferase (AST) and alanine aminotransferase (ALT) values (n=12 mice), although it should be noted that AST and ALT concentrations within both groups were higher and with greater variability than anticipated (e.g., mean ALT 677 U/L [SD, 401 U/L] in the vehicle control group and 693 U/L [SD, 365 U/L] in the Compound #37 group). After the animals were divided into 2 groups, the diet was continued for 10 additional weeks during which time 1 group received vehicle and the other was treated with 20 mg/kg/day Compound #37.

SCD1 = assay: Short-term Paigen-diet NASH mouse model: hepatic SCD1 gene expression (RT-qPCR); details: SCD1 relative expression to vehicle group, 21 days
Method: as §1, §2, §3

SREBP1C = assay: DIN mouse model: hepatic SREBP1C gene expression; set-up: key to 2^DDct: expression relative to vehicle group, normalized to 18S; details: 20 mg/kg group; for 18S: Gene Expression: SREBP1C table, 18S reference; for 2^DDct / DDct / Dct / SREBP1C: Gene Expression: SREBP1C
Method: as §3, §4, §5
Hepatic expression levels of genes involved in lipid (FAS, SREBP1, ACC1, SCD1), cholesterol metabolism (HMG-CoAR, LDLR), in SREBP proteolysis (SCAP, INSIG1), in ER stress (PERK), oxidative stress (NRF2), and inflammation (MCP-1) were not changed. However, expression of collagen 1α1, involved in liver fibrosis, was reduced by 66% in mice treated with Compound #37 (p<0.05 vs. vehicle).

## CC(C)Cc1cc(-c2nc(-c3ccc(NS(=O)(=O)C(F)(F)F)cc3Cl)cs2)ccn1 [Compound 37, N-(3-chloro-4-(2-(2-isobutylpyridin-4-yl)thiazol-4-yl)phenyl)-1,1,1-trifluoromethanesulfonamide]
PERK; 5 mg/kg, group mean, n 10
  ER and oxidative stress gene expression PERK: 2DDct: 0.91
  ER and oxidative stress gene expression PERK: 18S: 12.3
  ER and oxidative stress gene expression PERK: DDct: 0.32
  ER and oxidative stress gene expression PERK: Dct: 15.4
  ER and oxidative stress gene expression PERK: PERK: 27.6
PERK; 5 mg/kg, individual animals
  ER and oxidative stress gene expression PERK: 2DDct: 1.29 and 0.54 and 0.35 and 1.5 and 0.42 and 0.58 and 1.06 and 1.56 and 0.97 and 0.79
  ER and oxidative stress gene expression PERK: 18S: 13.46 and 13.11 and 11.61 and 13.35 (2×) and 12.03 and 11.6 and 11.79 and 11.14 and 11.12
  ER and oxidative stress gene expression PERK: DDct: −0.36 and 0.9 and 1.52 and −0.58 and 1.24 and 0.8 and −0.08 and −0.64 and 0.04 and 0.34
  ER and oxidative stress gene expression PERK: Dct: 14.68 and 15.94 and 16.56 and 14.46 and 16.28 and 15.84 and 14.96 and 14.4 and 15.08 and 15.38
  ER and oxidative stress gene expression PERK: PERK: 28.14 and 29.05 and 28.17 and 27.81 and 28.31 and 29.19 and 26.56 and 26.19 and 26.22 and 26.5
PERK; 20 mg/kg, group mean, n 6
  ER and oxidative stress gene expression PERK: 2DDct: 1.33
  ER and oxidative stress gene expression PERK: 18S: 12.2
  ER and oxidative stress gene expression PERK: DDct: −0.27
  ER and oxidative stress gene expression PERK: Dct: 14.8
  ER and oxidative stress gene expression PERK: PERK: 27
PERK; 20 mg/kg, individual animals
  ER and oxidative stress gene expression PERK: 2DDct: 1.04 and 1.05 and 1.27 and 2.68 and 0.61 and 1.34
  ER and oxidative stress gene expression PERK: 18S: 12.91 and 12.29 and 12.2 and 13.03 and 11.49 and 11.26
  ER and oxidative stress gene expression PERK: DDct: −0.05 and −0.07 and −0.34 and −1.42 and 0.72 and −0.42
  ER and oxidative stress gene expression PERK: Dct: 14.99 and 14.97 and 14.7 and 13.62 and 15.76 and 14.62
  ER and oxidative stress gene expression PERK: PERK: 27.9 and 27.26 and 26.9 and 26.65 and 27.25 and 25.88
[1]; 70 days
  Liver weight increase: 21%
[1]; 70 days, p<0.05 vs. vehicle
  Hepatic total cholesterol levels increase: 17%
[1]; group mean, n 11
  liver cholesterol: 28.2 µg/mg
  liver fatty acids: 63.2 nmol/mg
  liver triglycerides: 133.8 µg/mg
  liver weight: 2.56
[1]; individual animals
  liver cholesterol: 27.4 µg/mg and 32.2 µg/mg and 25.8 µg/mg and 28.4 µg/mg and 28.3 µg/mg and 27.1 µg/mg and 29.9 µg/mg and 20.7 µg/mg and 31.3 µg/mg and 34.0 µg/mg and 25.3 µg/mg
  liver fatty acids: 72.2 nmol/mg and 67.2 nmol/mg and 56.2 nmol/mg and 82.8 nmol/mg and 56.8 nmol/mg and 47.8 nmol/mg and 68.4 nmol/mg and 43.9 nmol/mg and 70.0 nmol/mg and 76.7 nmol/mg and 53.2 nmol/mg
  liver triglycerides: 262.5 µg/mg and 203.3 µg/mg and 72.2 µg/mg and 162.3 µg/mg and 101.9 µg/mg and 53.6 µg/mg and 178.1 µg/mg and 48.9 µg/mg and 91.5 µg/mg and 195 µg/mg and 102.6 µg/mg
  liver weight: 3.24 and 2.72 and 1.97 (2×) and 2.74 and 2.39 and 2.54 and 2.44 and 2.67 and 3.05 and 2.40
SCD1; 5 mg/kg, group mean
  2DDct: 1.05
SCD1; 5 mg/kg, individual animals, 5 mg/kg
  2DDct: 2.96 and 0.99 and 0.66 and 2.02 and 0.77 and 0.22 and 0.93 and 0.76 and 0.6 and 0.59
SCD1; 20 mg/kg, group mean
  2DDct: 1.18
SCD1; 20 mg/kg, individual animals, 20 mg/kg
  2DDct: 0.98 and 0.47 (2×) and 0.88 and 2.28 and 2
SREBP1C; individual animal, 20 mg/kg
  18S: 12.55 (2×) and 12.84 and 12.43 and 12.35 (2×) and 12.59 and 11.73 and 12.51 and 11.5 and 11.55
SREBP1C; mean, n 11
  18S: 12.3
  2^DDct: 0.96
  DDct: 0.28
  Dct: 13.6
  SREBP1C: 25.9
SREBP1C; individual animal
  2^DDct: 1.30 and 1.21 and 0.41 and 0.49 and 0.69 and 1.10 and 0.99 and 1.37 and 0.36 and 0.47 and 2.13
  DDct: −0.38 and −0.27 and 1.30 and 1.04 and 0.54 and −0.14 and 0.01 and −0.45 and 1.46 and 1.10 and −1.09
  Dct: 12.98 and 13.09 and 14.66 and 14.4 and 13.9 and 13.22 and 13.37 and 12.91 and 14.82 and 14.46 and 12.27
  SREBP1C: 25.53 and 25.64 and 27.5 and 26.83 and 26.25 and 25.81 and 25.1 and 25.42 and 26.32 and 26.01 and 24.62
